The text below walks through data of patent US9255100B2 (BAYER INTELLECTUAL PROPERTY GMBH, priority 2010, dated 2016).

In the assay the target is T1, N-terminally GST-tagged human full length recombinant Mps-1 kinase (Homo sapiens, UniProt P33981).
T1 construct: N-terminally GST-tagged human full length recombinant Mps-1 kinase; purchased Invitrogen, Karslruhe, Germany PV4071
T1 sequence (P33981 1-857): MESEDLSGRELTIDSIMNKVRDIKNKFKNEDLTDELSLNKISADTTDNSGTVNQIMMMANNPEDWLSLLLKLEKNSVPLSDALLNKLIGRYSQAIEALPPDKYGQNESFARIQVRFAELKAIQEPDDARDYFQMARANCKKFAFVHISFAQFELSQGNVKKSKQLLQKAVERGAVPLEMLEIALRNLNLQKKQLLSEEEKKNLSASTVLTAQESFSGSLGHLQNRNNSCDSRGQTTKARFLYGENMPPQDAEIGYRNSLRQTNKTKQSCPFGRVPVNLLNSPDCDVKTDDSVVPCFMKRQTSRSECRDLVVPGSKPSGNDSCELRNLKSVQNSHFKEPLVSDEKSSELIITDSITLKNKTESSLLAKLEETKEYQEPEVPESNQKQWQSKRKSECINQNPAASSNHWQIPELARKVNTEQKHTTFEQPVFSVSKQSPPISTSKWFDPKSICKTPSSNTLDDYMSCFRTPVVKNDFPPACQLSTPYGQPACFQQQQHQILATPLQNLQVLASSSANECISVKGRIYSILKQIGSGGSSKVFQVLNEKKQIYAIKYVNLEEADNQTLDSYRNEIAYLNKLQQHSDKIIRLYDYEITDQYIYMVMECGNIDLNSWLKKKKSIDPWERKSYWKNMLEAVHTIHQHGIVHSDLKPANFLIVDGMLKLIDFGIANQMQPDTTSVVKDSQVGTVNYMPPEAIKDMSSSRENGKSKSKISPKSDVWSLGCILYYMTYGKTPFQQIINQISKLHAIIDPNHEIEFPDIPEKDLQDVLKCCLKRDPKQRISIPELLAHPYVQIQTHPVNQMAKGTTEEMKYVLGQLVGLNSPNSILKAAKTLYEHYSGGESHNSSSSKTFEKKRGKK
Put plainly: Mps-1 kinase assay (TR-FRET). In kind it is biochemical. Particulars: Mps1 IC50 [nM], 10 μM ATP, 1 μM peptide substrate, 60 min at 22° C. An outline of the steps: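 GST-Mps-1 (full length, N-term tag) ~1 nM final, linear-range adjusted per lot; biotinylated peptide substrate. Detection: Eu-anti-pSer/Thr donor → SA-XLent acceptor TR-FRET, 1 h, 22° C. Inhibition of kinase activity.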
Take `C/C=C(\C)c1cc(NCCC(F)(F)F)c2ncc(-c3ccc(-c4cnc(C5CC5)[nH]4)cc3)n2n1` [Example 27, 6-[(2E)-But-2-en-2-yl]-3-[4-(2-cyclopropyl-1H-imidazol-5-yl)phenyl]-N-(3,3,3-trifluoropropyl)imidazo[1,2-b]pyridazin-8-amine]: the IC50 was 33.2 nM.

Regarding `Cc1cc(-c2cnc3c(NCC(C)(C)O)cc(Sc4cccc(F)c4)nn23)ccc1C(=O)NC1CC1` [Example 89, N-cyclopropyl-4-{6-[(3-fluorophenyl)sulfanyl]-8-[(2-hydroxy-2-methylpropyl)amino]imidazo[1,2-b]pyridazin-3-yl}-2-methylbenzamide], the IC50 is 0.2 nM.

In the case of `FC(F)(F)CCNc1cc(-c2ccncc2)nn2c(-c3ccc(-c4cnc(C5CC5)[nH]4)cc3)cnc12` [Example 26, 3-[4-(2-Cyclopropyl-1H-imidazol-5-yl)phenyl]-6-(pyridin-4-yl)-N-(3,3,3-trifluoropropyl)imidazo[1,2-b]pyridazin-8-amine], the IC50 turned out to be 4.1 nM.

As for `Cc1cc(-c2cnc3c(NCC4CC[S+]([O-])CC4)cc(Oc4ccc(Cl)cc4)nn23)ccc1C(=O)NC1CC1` (mixture of isomers) [Example 294B, 4-[6-(4-chlorophenoxy)-8-({[(cis/trans)-1-oxidotetrahydro-2H-thiopyran-4-yl]methyl}amino)imidazo[1,2-b]pyridazin-3-yl]-N-cyclopropyl-2-methylbenzamide], the IC50 is 0.2 nM.

For the molecule `Cc1cc(-c2cnc3c(NCCC(F)(F)F)cc(Oc4cccc(F)c4)nn23)ccc1C(=O)NC(C)C` [Example 553, 4-{6-(3-fluorophenoxy)-8-[(3,3,3-trifluoropropyl)amino]imidazo[1,2-b]pyridazin-3-yl}-N-isopropyl-2-methylbenzamide], the IC50 came to 0.7 nM.

For `Cc1cc(-c2cnc3c(NCCC(F)(F)F)cc(Oc4cccnc4)nn23)ccc1C(=O)NC1CC1` [Example 174, N-cyclopropyl-2-methyl-4-{6-(pyridin-3-yloxy)-8-[(3,3,3-trifluoro-propyl)amino]imidazo[1,2-b]pyridazin-3-yl}benzamide], the IC50 was less than 0.1 nM.

Turning to `COC1(NC(=O)c2ccc(-c3cnc4c(NCCC(F)(F)F)cc(Oc5cccc(F)c5)nn34)cc2C)CC1` [Example 460, 4-{6-(3-fluorophenoxy)-8-[(3,3,3-trifluoropropyl)amino]imidazo[1,2-b]pyridazin-3-yl}-N-(1-methoxycyclopropyl)-2-methylbenzamide], the concentration for half-maximal inhibition (IC50) came to 0.3 nM.

Regarding `CNC(=O)c1ccc(-c2cnc3c(NCCOC)cc(Oc4ccc(OC)c(F)c4)nn23)cc1C` [Example 586, 4-{6-(3-fluoro-4-methoxyphenoxy)-8-[(2-methoxyethyl)a-mino]imidazo[1,2-b]pyridazin-3-yl]-N,2-dimethylbenzamide], the IC50 worked out at 1 nM.

Take `Cc1cc(-c2cnc3c(NCC(C)(C)O)cc(Sc4ccccc4)nn23)ccc1C(=O)NC1CC1` [Example 214, N-cyclopropyl-4-{8-[(2-hydroxy-2-methylpropyl)amino]-6-(phenylsulfanyl)imidazo[1,2-b]pyridazin-3-yl}-2-methylbenzamide]: the IC50 is less than 1 nM.

On to `Cc1cc(-c2cnc3c(NCC(C)(C)O)cc(-c4ccc(F)c(CO)c4)nn23)ccc1C(=O)NC1CC1` [Example 165, N-cyclopropyl-4-{6-[4-fluoro-3-(hydroxymethyl)phenyl]-8-[(2-hydroxy-2-methylpropyl)amino]imidazo[1,2-b]pyridazin-3-yl}-2-methylbenzamide], for which the IC50 was 1.8 nM.

On to `Cc1cc(-c2cnc3c(NCC(C)(C)O)cc(Nc4ccccc4)nn23)ccc1C(=O)NC1CC1` [Example 306, 4-{6-anilino-8-[(2-hydroxy-2-methylpropyl)amino]imidazo[1,2-b]pyridazin-3-yl}-N-cyclopropyl-2-methylbenzamide], for which the IC50 came to 0.6 nM.

Regarding `Cc1cc(-c2cnc3c(NCC4CCS(=O)(=O)CC4)cc(Oc4cccc(F)c4)nn23)ccc1C(=O)NC1CC1` [Example 298A, N-cyclopropyl-4-[8-{[(1,1-dioxidotetrahydro-2H-thiopyran-4-yl)methyl]amino}-6-(3-fluorophenoxy)imidazo[1,2-b]pyridazin-3-yl]-2-methylbenzamide], the IC50 was less than 0.1 nM.

As to `Cc1cc(-c2cnc3c(NCC(C)(C)O)cc(Nc4ccc(F)cc4)nn23)ccc1C(=O)NC1CC1` [Example 305, N-cyclopropyl-4-{6-[(4-fluorophenyl)amino]-8-[(2-hydroxy-2-methylpropyl)amino]imidazo[1,2-b]pyridazin-3-yl}-2-methylbenzamide], the IC50 worked out at 0.6 nM.

For the molecule `Cc1cc(-c2cnc3c(NCC(C)(C)O)cc(Oc4ccc(F)nc4)nn23)ccc1C(=O)NC1CC1` [Example 410, N-cyclopropyl-4-{6-[(6-fluoropyridin-3-yl)oxy]-8-[(2-hydroxy-2-methylpropyl)amino]imidazo[1,2-b]pyridazin-3-yl}-2-methylbenzamide], the IC50 stood at 0.5 nM.

On to `Cc1cc(C)cc(Oc2cc(NCC(C)(C)O)c3ncc(-c4ccc(C(=O)NC5CC5)c(C)c4)n3n2)c1` [Example 96, N-cyclopropyl-4-{6-(3,5-dimethylphenoxy)-8-[(2-hydroxy-2-methylpropyl)amino]imidazo[1,2-b]pyridazin-3-yl}-2-methylbenzamide], for which the IC50 was found to be 0.8 nM.

In the case of `Cc1cc(-c2cnc3c(NCC(C)C)cc(Cl)nn23)ccc1C(=O)NC1CC1` [Example 99, 4-{6-Chloro-8-[(2-methylpropyl)amino]imidazo[1,2-b]pyridazin-3-yl}-N-cyclopropyl-2-methylbenzamide], the half-inhibitory concentration (IC50) came out at 29.5 nM.

In the case of `Cc1cc(-c2cnc3c(NCC(C)(C)O)cc(SCCC(C)(C)C)nn23)ccc1C(=O)NC1CC1` [Example 217, N-cyclopropyl-4-{6-[(3,3-dimethylbutyl)sulfanyl]-8-[(2-hydroxy-2-methylpropyl)amino]imidazo[1,2-b]pyridazin-3-yl}-2-methylbenzamide], the IC50 came to 3.6 nM.

Regarding `CC(C)CNc1cc(-c2ccnn2C)nn2c(-c3ccc(C(=O)NC4CC4)cc3)cnc12` [Example 137, N-cyclopropyl-4-{8-[(2-methylpropyl)amino]-6-(1-methyl-1H-pyrazol-5-yl)imidazo[1,2-b]pyridazin-3-yl}benzamide], the IC50 was less than 1 nM.

Take `Cc1cc(Sc2cc(NCC(C)(C)O)c3ncc(-c4ccc(C(=O)NC5CC5)c(C)c4)n3n2)ccc1F` [Example 65, N-cyclopropyl-4-{6-[(4-fluoro-3-methylphenyl)sulfanyl]-8-[(2-hydroxy-2-methylpropyl)amino]imidazo[1,2-b]pyridazin-3-yl}-2-methylbenzamide]: the IC50 worked out at 0.7 nM.

`Cc1cc(-c2cnc3c(NCC(C)(C)O)cc(Oc4cccnc4)nn23)ccc1C(=O)NC1CC1` [Example 173, N-cyclopropyl-4-{8-[(2-hydroxy-2-methylpropyl)amino]-6-(pyridin-3-yloxy)imidazo[1,2-b]pyridazin-3-yl}-2-methylbenzamide]: the IC50 was 0.4 nM.

Take `Cc1ccc(Oc2cc(NCC(C)(C)O)c3ncc(-c4ccc(C(=O)NC5CC5)c(C)c4)n3n2)cn1` [Example 264, N-cyclopropyl-4-{8-[(2-hydroxy-2-methylpropyl)amino]-6-[(6-methylpyridin-3-yl)oxy]imidazo[1,2-b]pyridazin-3-yl}-2-methylbenzamide]: the IC50 was 2 nM.

On to `COC(C)(C)CNc1cc(-c2ccccc2CO)nn2c(-c3ccc(C(=O)NC4CC4)c(C)c3)cnc12` [Example 38, N-cyclopropyl-4-{6-[2-(hydroxymethyl)phenyl]-8-[(2-methoxy-2-methylpropyl)amino]imidazo[1,2-b]pyridazin-3-yl}-2-methylbenzamide], for which the IC50 is 10.3 nM.

Consider `Cc1cc(-c2cnc3c(NCCN4CCN(C)CC4)cc(Oc4cccc(F)c4)nn23)ccc1C(=O)NC1CC1` [Example 501, N-cyclopropyl-4-[6-(3-fluoro-phenoxy)-8-{[2-(4-methyl-piperazin-1-yl)ethyl]amino}imidazo[1,2-b]pyridazin-3-yl]-2-methylbenzamide], for which the IC50 turned out to be 0.1 nM.

On to `Cc1cc(-c2cnc3c(NCC(C)(C)O)cc(OCC4CC4(F)F)nn23)ccc1C(=O)NC1CC1` (racemic) [Example 240, (RS)—N-cyclopropyl-4-{6-[(2,2-difluorocyclopropyl)methoxy]-8-[(2-hydroxy-2-methylpropyl)amino]imidazo[1,2-b]pyridazin-3-yl}-2-methylbenzamide], for which the concentration for half-maximal inhibition (IC50) was 1.2 nM.

The IC50 is the point on the concentration scale where inhibition reaches its midpoint.
